Results on seven molecules are retold here after US6875581B1, “Method for screening of modulators of calcineurin activity” (Genopia Biomedical GmbH, priority 1998, dated 2005).

The Vmax is the rate approached at saturating substrate. What is called Km is the concentration of substrate that gives half-maximal velocity.

Series [1] has as its system calcineurin. Kind of series: Phosphotyrosine phosphatase assay with the substrate fluoresceinmonophosphate (FMP). In kind it is biochemical. Conditions: FMP as substrate, Lineweaver-Burk method. As for the experimental part: 20. Calcineurin phosphatase assay—100 ng-4 μg recombinant calcineurin (calcineurin-A/B heterodimer), 100 ng-1 μg purified bovine brain calcineurin (Sigma Aldrich, Deisenhofen, Germany) or 100 μg homogenized tissue or cell extracts were used for classical calcineurin phosphatase assays. 100 μg cells or tissue were homogenized exactly as described (Stemmer et al., 1995). Partly purified and redox sensitive calcineurin was prepared by centrifugation at 14,000 rpm at 4° C. for 10 min (Eppendorf centrifuge 5417R) and the resulting supernatant was separated on a 1.5×10 cm Sephadex-G50 gelfiltration column as described (Stemmer et al., 1995), (Gold et al., 1997). […] After starting the enzymatic reaction with para-nitrophenylphosphate or fluoresceinmonophosphate the absorbance at 405 nm (para-nitrophenylphosphate) or fluorescence λ exication=485 nm; λ emission=520 nm) was monitored over 20 min at 30° C. using a UV/VIS/fluorescence microplate photometer (Biolumin 960 kinetic fluorescence/absorbance photometer, Molecular Dynamics). […] The protective effect of CuZnSOD against redox inactivation of calcineurin was determined by addition of 3 μg recombinant human wild-type or mutated CuZnSOD (constant CuZnSOD protein) or addition of 1.67 units of recombinant human wild-type or mutated CuZnSOD (constant CuZnSOD activity). […] The quantity of released phosphate was determined by a scintillation counting. […]

Series [2] has as its system calcineurin. In words: Protective effect of CuZnSOD against calcium induced redox inactivation of calcineurin (FK506 inhibitable RII-phosphopeptide activity). It counts as biochemical. Particulars: 20 min vs 0 min; for Percentage of FK506 inhibitable RII-phosphopeptide activity after 20 min compared with the activity at 0 min, constant protein (3 μg): 3 μg CuZnSOD; for Percentage of FK506 inhibitable RII-phosphopeptide activity after 20 min compared with the activity at 0 min, constant activity (1.67 U): 1.67 U CuZnSOD. On the procedure: 20. Calcineurin phosphatase assay—100 ng-4 μg recombinant calcineurin (calcineurin-A/B heterodimer), 100 ng-1 μg purified bovine brain calcineurin (Sigma Aldrich, Deisenhofen, Germany) or 100 μg homogenized tissue or cell extracts were used for classical calcineurin phosphatase assays. 100 μg cells or tissue were homogenized exactly as described (Stemmer et al., 1995). Partly purified and redox sensitive calcineurin was prepared by centrifugation at 14,000 rpm at 4° C. for 10 min (Eppendorf centrifuge 5417R) and the resulting supernatant was separated on a 1.5×10 cm Sephadex-G50 gelfiltration column as described (Stemmer et al., 1995), (Gold et al., 1997). Phosphotyrosine phosphatase assay was performed in microplates (100 μl total assay volume) either using 30 μM fluoresceinmonophosphate or 20 mM para-nitrophenylphosphate (Sigma Aldrich, Deisenhofen, Germany); 10 μl recombinant, purified or partly purified and assay buffer (25 mM Tris/HCl, pH 7; 2 mM CaCl2; 0.1 μM calmodulin; 25 μM FK506). After starting the enzymatic reaction with para-nitrophenylphosphate or fluoresceinmonophosphate the absorbance at 405 nm (para-nitrophenylphosphate) or fluorescence λ exication=485 nm; λ emission=520 nm) was monitored over 20 min at 30° C. using a UV/VIS/fluorescence microplate photometer (Biolumin 960 kinetic fluorescence/absorbance photometer, Molecular Dynamics). Phosphoserine phosphatase assay was performed as described (Hubbard and Klee, 1991), (Wang et al., 1996). […] The protective effect of CuZnSOD against redox inactivation of calcineurin was determined by addition of 3 μg recombinant human wild-type or mutated CuZnSOD (constant CuZnSOD protein) or addition of 1.67 units of recombinant human wild-type or mutated CuZnSOD (constant CuZnSOD activity). The reaction mixture was incubated for 2 min at 30° C. and stopped with 100 mM potassium phosphate/5% TCA. The reaction mixture was passed through a 0.5 ml ion-exchange column (Dowex; AG 50W-X8, BioRad) and the unbound phosphate eluted with 0.5 ml water. The quantity of released phosphate was determined by a scintillation counting.
Protective Effect of CuZnSOD of Calcium Induced Inactivation of Calcineurin
Percentage of FK506 inhibitable RII-phosphopeptide activity after 20 min compared with the activity at 0 min

The nature of series [3]: SOD assay (enzymatic activity of the CuZnSOD proteins). In kind it is biochemical. On the procedure: 8. SOD assay and activity staining—Enzymatic activity of the CuZnSOD proteins were either analyzed by 10% native gel electrophoresis and activity staining with nitrotetrazolium blue dye or by a quantitative spectrophotometrically assay according to published protocols (Beauchamp and Fridovich, 1971; Nebot et al., 1993). Protein yields were determined by the Bradford method (Protein assay kit, BioRAD, Hercules, Calif., USA). The concentration of purified CuZnSOD was determined spectrophotometrically using the extinction coefficient 265=1.84×10^4 M^−1 cm^−1.

Series [4] concerns calcineurin-A/B heterodimer. In words: Laser fluctuation correlation spectroscopy, binding of fluorescence labeled CuZnSOD to calcineurin. The arrangement: species or system human. Particulars: labeled CuZnSOD alone 41 kDa; expected 114 kDa. From the text:
21. High Throughput BioAssay using recombinant calcineurin-A, recombinant calcineurin-B, calmodulin and recombinant CuZnSOD (analytical assay to identify activators or inhibitors of CuZnSOD/calcineurin interaction)—Laser fluctuation correlation spectroscopy (FCS) is a useful tool to quantify ligand—ligand interactions. The fluorescence F(t) of a optical well defined volume element which is excitated by a confocal laser is monitored as a function of time. The temporal autocorrelation of the fluorescence fluctuation δ F(t) yields the time scale of this dynamics and the average number of independent fluorophores in the probe volume. If the fluorescene fluctuation arise from diffusive motion and from fluorescence sensitive reaction, fluorescent fluctuation correlation function signal is approximated by the formula: GDR(τ)=GDiff(τ)*[1+A*exp(−kR*τ)] • τ=fluorescence correlation time • kR=apparent binding constant of the fluorescent labeled ligand • A=equilibrium coefficent dependent constant
If one measurement is performed with a solution only containing the fluorescent labeled ligand and a second measurement is performed with a solution containing the fluorescent labeled ligand and an interacting molecule the correlation function GDR can be separately analyzed and yields binding parameters of the interacting molecules. […]

With `O=C1OC2(c3ccc(O)cc3Oc3cc(OP(=O)(O)O)ccc32)c2ccccc21` (stereo not shown) [FMP, fluoresceinmonophosphate], in series [1], the Vmax stood at 400 µmol/min. Further, in series [1] (Michaelis-Menten kinetic assumed), the Km came to 40 µM.
As to “erythrocyte wild-type: purified human erythrocyte CuZnSOD (Sigma Aldrich) [reference compound]”, in series [2], the “Percentage of FK506 inhibitable RII-phosphopeptide activity after 20 min compared with the activity at 0 min, constant protein (3 μg)” value is recorded as 57 +/− 10% and the “Percentage of FK506 inhibitable RII-phosphopeptide activity after 20 min compared with the activity at 0 min, constant activity (1.67 U)” value is given as 57 +/− 10%. In series [3], the “CuZnSOD activity per mg protein” value was “(8330 U/mg)”.
For “labeled CuZnSOD: recombinant CuZnSOD labeled with Oregon-Green-514 dye”, in series [4], the “hydrodynamic radius / apparent molecular weight after addition of calcineurin-A/B heterodimer” value is reported as 90 kDa.
Turning to “recomb. mutation A4V: recombinant human CuZnSOD with substitution Ala-4 -> Val-4”, in series [2], the “Percentage of FK506 inhibitable RII-phosphopeptide activity after 20 min compared with the activity at 0 min, constant protein (3 μg)” value is 22 +/− 27% and the “Percentage of FK506 inhibitable RII-phosphopeptide activity after 20 min compared with the activity at 0 min, constant activity (1.67 U)” value is on record as 8 +/− 3%. For the same molecule, the “CuZnSOD activity per mg protein” value in series [3] is listed as “(1820 U/mg)”.
For “recomb. mutation D90A: recombinant human CuZnSOD with substitution Asp-90 -> Ala-90”, the “hydrodynamic radius / apparent molecular weight after addition of calcineurin-A/B heterodimer” value in series [4] is listed as 180.000 kDa. In addition, in series [2], the “Percentage of FK506 inhibitable RII-phosphopeptide activity after 20 min compared with the activity at 0 min, constant protein (3 μg)” value is listed as 42 +/− 17% and the “Percentage of FK506 inhibitable RII-phosphopeptide activity after 20 min compared with the activity at 0 min, constant activity (1.67 U)” value is on record as 32 +/− 15%. In addition, the “CuZnSOD activity per mg protein” value in series [3] was “(4590 U/mg)”.
In the case of “recomb. mutation G93A: recombinant human CuZnSOD with substitution Gly-93 -> Ala-93”, in series [2], the “Percentage of FK506 inhibitable RII-phosphopeptide activity after 20 min compared with the activity at 0 min, constant protein (3 μg)” value is 16 +/− 16% and the “Percentage of FK506 inhibitable RII-phosphopeptide activity after 20 min compared with the activity at 0 min, constant activity (1.67 U)” value is 21 +/− 22%. For the same molecule, the “CuZnSOD activity per mg protein” value in series [3] is “(2130 U/mg)”.
In the case of “recombinant wild-type: recombinant human wild-type copper/zinc superoxide dismutase expressed in E. coli”, in series [2], the “Percentage of FK506 inhibitable RII-phosphopeptide activity after 20 min compared with the activity at 0 min, constant protein (3 μg)” value is 70 +/− 33% and the “Percentage of FK506 inhibitable RII-phosphopeptide activity after 20 min compared with the activity at 0 min, constant activity (1.67 U)” value was 56 +/− 22%. Besides, the “CuZnSOD activity per mg protein” value in series [3] is listed as “(6380 U/mg)”.
